Laboratory results taken from US5807851A, “2,3-Benzodiazepine Derivatives as non-competitive AMPA” (Egis Gyogyszergyar Rt., priority 1997, dated 1998).

System: AMPA receptor
Assay: In vitro kainate antagonistic activity: retinal spreading depression on isolated chicken retina
Assay type: cell-based
Settings: isolated chicken retina preparations; spreading depression developed with 5 microM of kainate; at least 3 concentrations
Procedure: Antagonizing the effect of kainate (in vitro test)
The in vitro activity of the compounds was determined on isolated chicken retina preparations /M. J. Sheardown, Brain Res., 607, 189 (1993)/. The spreading depression was developped with 5 microM of kainate (the chemical name of kainic acid is 2-carboxy-4-isopropenyl-3-pyrrolidine-acetic acid), and the IC50 values were determined according to Sheardown. The compounds were tested in at least 3 concentrations. Compounds having AMPA antagonistic activity inhibit the response to the kainate having AMPA receptor agonistic activity, and the inhibition obtained depends on the concentration of the compounds.

Compound	IC50
CC(=O)N1N=C(c2ccc(N)cc2)c2cc(Cl)c(Cl)cc2CC1C (stereo not shown) [Example 10, 3-Acetyl-1-(4-aminophenyl)-7,8-dichloro-4-methyl-4,5-dihydro-3H-2,3-benzodiazepine]	2.5 µM
CNC(=O)N1N=C(c2ccc(N)cc2)c2cc(Cl)c(Cl)cc2CC1C (stereo not shown) [Example 12, 1-(4-Aminophenyl)-7,8-dichloro-4-methyl-3-methylcarbamoyl-4,5-dihydro-3H-2,3-benzodiazepine]	1.2 µM
CC1=NN=C(c2ccc(N)cc2)c2cc3c(cc2C1)OCO3 [A, reference compound]	9.5 µM
CC(=O)N1N=C(c2ccc(N)cc2)c2ccc(Cl)cc2CC1C (stereo not shown) [Example 2, 3-Acetyl-1-(4-aminophenyl)-7-chloro-4-methyl-4,5-dihdyro-3H-2,3-benzodiazepine]	3.2 µM
CNC(=O)N1N=C(c2ccc(N)cc2)c2ccc(Cl)cc2CC1C (stereo not shown) [Example 4, 1-(4-Aminophenyl)-7-chloro-4-methyl-3-(methylcarbamoyl)-4,5-dihydro-3H-2,3-benzodiazepine]	3.6 µM
CNC(=O)N1N=C(c2ccc(N)cc2)c2cc(Cl)ccc2CC1C (stereo not shown) [Example 8, 1-(4-Aminophenyl)-8-chloro-4-methyl-3-methylcarbamoyl-4,5-dihydro-3H-2,3-benzodiazepine]	4.6 µM
CC(=O)N1N=C(c2ccc(N)cc2)c2cc(Cl)ccc2CC1C (stereo not shown) [Example 6, 3-Acetyl-1-(4-aminophenyl)-8-chloro-4-methyl-4,5-dihydro-3H-2,3-benzodiazepine]	8.2 µM
